The target of one test is T1, hAR (Homo sapiens, UniProt P10275).
T1 construct: made in house; host or cells: baculovirus/Sf9 insect cells
T1 sequence (P10275 1-920): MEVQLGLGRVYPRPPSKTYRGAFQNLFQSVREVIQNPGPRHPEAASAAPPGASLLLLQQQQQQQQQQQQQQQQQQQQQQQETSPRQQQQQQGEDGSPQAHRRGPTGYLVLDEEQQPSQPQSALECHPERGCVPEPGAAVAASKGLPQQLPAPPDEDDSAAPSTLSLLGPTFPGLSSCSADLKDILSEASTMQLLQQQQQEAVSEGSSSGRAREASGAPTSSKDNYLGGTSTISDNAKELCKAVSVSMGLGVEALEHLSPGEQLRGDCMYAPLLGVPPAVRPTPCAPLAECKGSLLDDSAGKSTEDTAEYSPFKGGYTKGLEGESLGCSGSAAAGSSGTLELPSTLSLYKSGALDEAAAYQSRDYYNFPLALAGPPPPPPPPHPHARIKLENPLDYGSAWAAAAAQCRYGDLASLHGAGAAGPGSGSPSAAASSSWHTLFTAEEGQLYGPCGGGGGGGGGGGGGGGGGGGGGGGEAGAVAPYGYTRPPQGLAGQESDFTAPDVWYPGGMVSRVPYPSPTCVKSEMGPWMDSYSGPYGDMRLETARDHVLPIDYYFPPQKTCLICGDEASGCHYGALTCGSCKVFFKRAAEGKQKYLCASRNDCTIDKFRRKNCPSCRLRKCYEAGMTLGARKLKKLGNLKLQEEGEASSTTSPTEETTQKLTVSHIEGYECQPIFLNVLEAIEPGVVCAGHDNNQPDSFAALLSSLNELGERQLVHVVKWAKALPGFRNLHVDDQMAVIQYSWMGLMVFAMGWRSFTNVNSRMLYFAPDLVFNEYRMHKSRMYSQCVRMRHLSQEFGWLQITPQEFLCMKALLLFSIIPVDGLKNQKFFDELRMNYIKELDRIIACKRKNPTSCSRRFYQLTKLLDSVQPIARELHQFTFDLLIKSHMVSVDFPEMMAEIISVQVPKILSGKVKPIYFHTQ
The experiment in a line: Competitive binding analysis on baculovirus/Sf9 generated hAR extracts with 3H-DHT tracer. The note with it: 1 nM 3H-DHT, one hour at 4° C., mean of multiple tests. As for the experimental part:
The description below describes how the assay was carried out.
Competitive binding analysis was performed on baculovirus/Sf9 generated hAR extracts in the presence or absence of different concentrations of test agent and a fixed concentration of ^3H-dihydrotestosterone (^3H-DHT) as tracer. This binding assay method is a modification of a protocol previously described (Liao S., et. al. J. Steroid Biochem. 20:11-17 1984). Briefly, progressively decreasing concentrations of compounds are incubated in the presence of hAR extract (Chang et al. P.N.A.S. Vol. 89, pp. […], 1992), hydroxylapatite, and 1 nM ^3H-DHT for one hour at 4° C. Subsequently, the binding reactions are washed three times to completely remove excess unbound ^3H-DHT. hAR bound ^3H-DHT levels are determined in the presence of compounds (i.e. competitive binding) and compared to levels bound when no competitor is present (i.e. maximum binding). Compound binding affinity to the hAR is expressed as the concentration of compound at which one half of the maximum binding is inhibited.

The next test concerns the target T2, androgen receptor (Homo sapiens, UniProt P10275, Q868H).
T2 construct: a human breast tumor cell line expressing androgen receptor; endogenous in cells; host or cells: MDA-MB453-MMTV clone 54-19 (only the MMTV-luciferase reporter was transfected)
T2 sequence (P10275 1-920 Q868H): T1 sequence (P10275 1-920) with Q868H
The experiment in a line: AR antagonist cell assay (MDA-MB453-MMTV clone 54-19, luciferase reporter). The test is classed as cell-based. The note with it: 100 pM DHT, 17 hr, mean of multiple tests. As for the experimental part: The compounds ability to antagonize the effects of androgen on the androgen receptor were determined in a whole cell assay as described immediately below.
Experimental Procedure for AR Antagonist Cell Assay
This cell line is a stable transfected cell line with MDA-MB453 cell background (a human breast tumor cell line expressing androgen receptor). A MMTV minimal promoter containing ARE was first cloned in front of a firefly luciferase reporter gene. Then the cascade was cloned into transfection vector pUV120puro. Electroporation method was used for transfecting MDA-MB-453 cell. Puromycin resistant stable cell line was selected.
Cell Culture Media and Reagents:
Culture medium: DMEM (high glucose, Gibco cat #: 11960-044), 10% FBS, and 1% L-glutamine
Plating medium: DMEM (phenol red free), 10% charcoal treated HyClone serum, 1% L-glutamine
Assay medium: DMEM (phenol red free), 1% charcoal treated HyClone serum, 1% L-glutamine, and 1% penicillin/streptomycin
3× luciferase buffer: 2% beta-mercaptoethanol, 0.6% ATP, 0.0135% luciferine in cell lysis buffer
• 1. Cells are maintained in culture medium, splitting cells when they reach 80-90% confluence • 2. To test compounds, 10,000 cells/well are plated to opaque 96 cell culture plate in 100 ul/well plating medium, culture for overnight at 37° C. in cell culture incubator • 3. Carefully remove plating medium, then add 80 ul/well of pre-warmed assay medium, add 10 ul/well testing compound (final concentration at) 1000 nM, 200 nM, 40 nM, 8 nM, 1.6 nM, and 0.32 nM), incubate at 37° C. for 30 minutes • 4. Add 10 ul/well freshly prepared DHT (final concentration at 100 pM) to each well, incubate at 37° C. for 17 hr (overnight) • 5.
The results are reported as the mean of multiple tests as described below (the numbers of tests are indicated in the footnote). N.D. denotes that the compound was not tested.
(A reporter such as luciferase makes a cellular process visible.)

Setting [1] is: MDA-MB453-MMTV clone 54-19 cells, read-out: AR Cell IC50.
[2] abbreviates: hAR extract, read-out: AR Binding IC50.
Where [3] appears, read: AR Cell IC50, MDA-MB453-MMTV clone 54-19 cells.

Changes are numbered by the printed parent chain. pIC50: −log10 of the molar value. Like-named read-outs stand apart in the source and are kept apart here.

For `CO[C@H]1CCC[C@H]1Oc1ccc(C#N)c(Cl)c1` (relative stereo) [Example 34, 2-Chloro-4-(cis-2-methoxy-cyclopentyloxy)-benzonitrile], the pIC50 – broadly, the negative decadic logarithm of the IC50, by convention in mol/L – is 6.76 at hAR (AR Binding IC50, hAR extract) and 6.47 on androgen receptor (setting [1]).

On to `CO[C@H]1CCCC[C@H]1Oc1ccc(C#N)c(Cl)c1` (relative stereo) [Example 36, 2-Chloro-4-(cis-2-methoxy-cyclohexyloxy)-benzonitrile], for which the pIC50 at hAR (AR Binding IC50, hAR extract) is 6.91; on androgen receptor (setting [1]), 6.52.

For the molecule `CO[C@H]1CCCC[C@@H]1Oc1ccc(C#N)c(C(F)(F)F)c1` (relative stereo) [Example 70], the pIC50 on hAR (setting [2]) is 6.80; against androgen receptor (setting [3]) it was 8.00.

In the case of `CC1CCCC(Oc2ccc(C#N)cc2Cl)C1C` (single isomer, unassigned) [Example 64, 3-Chloro-4-(2,3-dimethyl-cyclohexyloxy)-benzonitrile], the pIC50 on hAR (setting [2]) was 6.92; at androgen receptor (setting [1]), 6.66.

For `N#Cc1ccc(O[C@@H]2CCCC[C@H]2C#N)cc1C(F)(F)F` (single isomer, unassigned) [Example 73, (trans)-(+)-4-(2-Cyano-cyclohexyloxy)-2-trifluoromethyl-benzonitrile], the negative-log IC50 (pIC50) is 7.21 on hAR (AR Binding IC50, hAR extract) and 6.71 on androgen receptor (setting [1]).

As for `CC1(O)C[C@@H]2C[C@H]1CC2Oc1ccc(C#N)c(C(F)(F)F)c1` (stereo in doubt) [Example 1, 4-(5-Hydroxy-5-methyl-bicyclo[2.2.1]hept-2-yloxy)-2-trifluoromethyl-benzonitrile], the pIC50 on hAR (setting [2]) was 6.18; against androgen receptor (setting [3]), 7.10.

As for `N#Cc1ccc(O[C@H]2CC3CC[C@@H]2C3)cc1Cl` (stereo in doubt) [Example 24, 4-(R)-(Bicyclo[2.2.1]hept-2-yloxy)-2-chloro-benzonitrile], the pIC50 on hAR (AR Binding IC50, hAR extract) was 6.97; against androgen receptor (setting [3]), 7.82.

Regarding `N#Cc1ccc(O[C@@H]2CC3CC[C@@H]2C3)cc1Cl` (stereo in doubt) [Example 25, 4-(S)-(Bicyclo[2.2.1]hept-2-yloxy)-2-chloro-benzonitrile], the pIC50 is 7.09 on hAR (AR Binding IC50, hAR extract) and more than 9.49 at androgen receptor (setting [1]).

For `N#Cc1ccc(O[C@H]2CCCCC2c2ccccc2)cc1Cl` (stereo in doubt) [Example 33, 2-Chloro-4-(2-(S)-phenyl-(S)-cyclohexyloxy)-benzonitrile], the pIC50 at hAR (AR Binding IC50, hAR extract) was 7.22; at androgen receptor (setting [1]), 6.31.

With `N#Cc1ccc(O[C@H]2CCCC[C@@H]2c2ccccc2)cc1C(F)(F)F` [Example 3, 4-(2-(R)-Phenyl-1-(S)-cyclohexyloxy)-2-trifluoromethyl-benzonitrile], the pIC50 at hAR (AR Binding IC50, hAR extract) is 7.14; at androgen receptor (setting [1]), less than 6.00.

Regarding `C=CCC1(Oc2ccc(C#N)c(C(F)(F)F)c2)CCCCC1` [Example 4, 4-(1-Allyl-cyclohexyloxy)-2-trifluoromethyl-benzonitrile], the pIC50 was 7.32 at hAR (AR Binding IC50, hAR extract) and less than 6.00 at androgen receptor (setting [1]).

For `CCC1CCCCC1Oc1ccc(C#N)c(C(F)(F)F)c1` (stereo not shown) [Example 7, 4-(2-Ethyl-cyclohexyloxy)-2-trifluoromethyl-benzonitrile], the pIC50 on hAR (setting [2]) was 6.90; on androgen receptor (setting [1]), 6.48.

For the molecule `C[C@@H]1CCCC[C@@H]1Oc1ccc(C#N)c(C(F)(F)F)c1` [Example 9, (1S,2R)-4-(2-Methyl-cyclohexyloxy)-2-trifluoromethyl-benzonitrile], the pIC50 at hAR (AR Binding IC50, hAR extract) is 7.66; at androgen receptor (setting [1]) it was 6.12.

For `N#Cc1ccc(OC2CCCC2)cc1C(F)(F)F` [Example 10], the pIC50 is 6.81 at hAR (setting [2]) and 6.22 at androgen receptor (setting [1]).

With `N#Cc1ccc(OC2CCCCC2)cc1C(F)(F)F` [Example 11, 4-Cyclohexyloxy-2-trifluoromethyl-benzonitrile], the pIC50 on hAR (setting [2]) was 6.41; on androgen receptor (setting [3]), 9.30.

For `CC1CCCC(C)C1Oc1ccc(C#N)c(C(F)(F)F)c1` (stereo not shown) [Example 12, 4-(2,6-Dimethyl-cyclohexyloxy)-2-trifluoromethyl-benzonitrile], the pIC50 on hAR (AR Binding IC50, hAR extract) was 7.14; at androgen receptor (setting [1]) it was less than 6.00.

As to `CCCCC1(Oc2ccc(C#N)c(Cl)c2)CCCC1` [Example 21, 4-(1-Butyl-cyclopentyloxy)-2-chloro-benzonitrile], the values for the pIC50 at hAR (setting [2]) and at androgen receptor (setting [1]) were 6.69 and less than 6.00, respectively.

`CCC1CCCCC1Oc1ccc(C#N)c(Cl)c1` (stereo not shown) [Example 22, 2-Chloro-4-(2-ethyl-cyclohexyloxy)-benzonitrile]: the pIC50 was 7.15 at hAR (AR Binding IC50, hAR extract) and less than 6.00 at androgen receptor (setting [1]).

`CC1CCC(Oc2ccc(C#N)c(Cl)c2)C1` (stereo not shown) [Example 23, 2-Chloro-4-(3-methyl-cyclopentyloxy)-benzonitrile]: the figures for the pIC50 at hAR (setting [2]) and on androgen receptor (setting [1]) were 6.84 and 6.69, respectively.

Regarding `N#Cc1ccc(OC2CCCC(O)C2)cc1Cl` (stereo not shown) [Example 26, 2-Chloro-4-(3-hydroxy-cyclohexyloxy)-benzonitrile], the figures for the pIC50 at hAR (setting [2]) and at androgen receptor (setting [3]) were 6.39 and 7.34, respectively.
